Key:
[1] = system: BSA-Amadori glycation intermediate; assay: Conversion of BSA-Amadori glycation intermediate to CML, measured with anti-CML antibody; format: biochemical; conditions: 0.1, 1, 15 mM PM; 200 mM sodium phosphate buffer, pH 7.5, 37° C.; FIG. 1A
Experimental: FIG. 1A is a graph depicting the conversion of Amadori intermediate to CML measured using anti-CML antibody.
Isolated BSA-Amadori glycation intermediate was formed at diabetic (30 mM) concentration of glucose. The conversion of Amadori intermediate to the AGE N^ε-carboxymethyllysine (CML) was measured using an anti-CML antibody.

[2] = system: collagen IV; assay: Formation of CML on collagen IV coated plates incubated with glucose (ELISA, anti-CML antibody); format: biochemical; conditions: 5 mM and 30 mM glucose; 200 mM sodium phosphate buffer, pH 7.5, 37° C., 40 days; FIG. 1B
Experimental: The secondary antibody used in the assay was an alkaline phosphatase conjugated goat anti-rabbit IgG from Sigma-Aldrich Co. (St. Louis, Mo., United States of America). Incubations were carried out in 200 mM sodium phosphate buffer, pH 7.5 at 37° C. for 40 days. […]

[3] = system: Human glomerular visceral epithelial cells (podocytes); assay: Cisplatin-induced podocyte cell death, viability by Rapid Cell Proliferation Kit; format: cell-based; conditions: 22 hours of treatment; RPMI medium with 1% FBS; FIG. 4
Experimental: Human glomerular visceral epithelial cells (podocytes) were plated at 8,000 cells/well (96-well plate) and incubated for 24 hours in RPMI medium supplemented with 1% FBS. Following this incubation cells were treated as indicated without changing the medium. The treatment continued for 22 hours and cell viability was measured using Rapid Cell Proliferation Kit (CALBIOCHEM®), a unit of EMD Biosciences, Inc. San Diego, Calif., United States of America).

[4] = system: 8-F2-isoprostane (8-iso-PGF2) in the kidney; assay: Carbon tetrachloride rat model of oxidative stress, 8-F2-isoprostane in kidney by GC-MS; format: in vivo; conditions: CCl4 vs. CCl4+PM, p=0.066, not statistically significant; FIG. 5
Experimental: FIG. 5 is a plot depicting the effect of PM administration on the levels of a marker of oxidative stress (8-F2-lsoP) in the carbon tetrachloride (CCl4) rat model disclosed herein as determined by gas-chromatography/mass-spectrometry (GC-MS).
Based on the results of the in vitro experiments disclosed herein, it was hypothesized that PM might reduce oxidative stress in the kidney in vivo. This hypothesis was evaluated using the carbon tetrachloride rat model of oxidative stress (see Kadiiska et al. (2005) Free Radic Biol Med 38:698-710). The effect of PM was determined by measuring the levels of an oxidative stress marker, 8-F2-isoprostane (8-iso-PGF2) in the kidney using gas-chromatography/mass-spectrometry (see Morrow et al. (1999) Methods Enzymol 300:3-12).

[5] = system: urinary oxalate excretion; assay: Ethylene glycol rat model of experimental hyperoxaluria with PM in drinking water; format: in vivo, Sprague-Dawley male rats
Experimental: FIGS. 6A and 6B are graphs depicting the effect of PM treatment on urinary oxalate excretion in animals with experimental hyperoxalura. Sprague-Dawley male rats (49-52 days old) were randomized on Day 1 to receive either ethylene glycol (0.75% v/v in drinking water (450 mg/day/kg body wt.); EG group) or no treatment (Control group). After Day 14, animals within each group were pair-matched according to their oxalate level. One member of each pair was then randomly assigned to receive PM (3 mg/ml or 180 mg/day/kg body wt.) either in drinking water (PM group) or in 0.75% ethylene glycol (EG+PM group). Urine samples were collected under toluene (to inhibit bacteria growth) in 50 ml tubes with hydrochloric acid to minimize spontaneous breakdown of urinary ascorbic acid to oxalate. Urinary oxalate was measured as described under Methods. Each symbol represents mean value±S.E. (n=5); at the time points indicated by asterisks, differences between the EG group and the EG+PM group were statistically significant (p<0.05). The data points on the graphs correspond to the following: ●—Control group; ▪—EG group; —PM group; ⋄—+EG+PM group.
In FIG. 6A, the results of PM given continuously starting from Day 14 are presented.
In FIG. 6B, the results for a separate experiment in which PM treatment was started on Day 14 and was discontinued on Day 28 are presented. In this experiment, the elevated levels of oxalate excretion in Control group on Day 3 are most likely related to animal adaptation. Note that the oxalate levels went down and leveled off before the beginning of PM treatment.
Ethylene glycol model of hyperoxaluria and pyridoxamine treatment. An established rat model of experimental hyperoxaluria, the ethylene glycol (EG) model (see e.g., Lyon et al. (1996) Invest Uro14:143-151; Khan (1997) World J Urol 05:236-243) was employed. […] Because ethylene glycol is converted to glycolaldehyde, an intermediate in glyoxylate pathway, its administration results in increased urinary oxalate levels (Lyon et al. (1996) Invest Urol 4:143-151; Khan (1997) World J Urol 05:236-243). […]
For uniform administration of EG and PM, water supply to all animals was limited to 45 ml/day. […] The length of treatment was determined based on the fact that after about 35 days of experimental hyperoxaluria rats may have some evidence of microscopic nephrolithiasis, but their renal function remains normal (Khan (1997) World J Urol 05:236-243). […]

[6] = Reactive PM amino groups in incubations with ethylene glycol (TNBS assay); format: physicochemical; conditions: 24 hours at room temperature
Experimental: Effect of pyridoxamine treatment on urinary oxalate excretion. […] With the proposed experimental design, interference between PM and ethylene glycol might have been possible because both were administered in drinking water. If significant spontaneous oxidation of ethylene glycol occurs in solution, the resulting carbonyl moieties might react with the PM amino group. To address this question, the amount of reactive PM amino groups was measured in incubations with ethylene glycol using TNBS assay (Spadaro et al. (1979) Anal Biochem 96:317-321).

[7] = system: gentamicin and glycerol rat models of ARF; assay: Gentamicin and glycerol rat models of ARF treated with PM; format: in vivo, Sprague-Dawley rats; conditions: ARF+PM group compared to ARF group; PM 180 mg/day/kg body weight in drinking water
Source text: The gentamicin and the glycerol rat models of ARF. There are several animal models of ARF, each having its specific advantages and limitations (see e.g., Bellomo et al. (2004) Group Crit Care 8:R204-12). Two such models are the gentamicin and the glycerol models. […] Importantly, the gentamicin and the glycerol models are highly relevant, representing two of the major clinical causes of ARF: antibiotic toxicity and rhabdomyolosis, respectively (Bellomo et al. (2004) Group Crit Care 8:R204-12). Examining the effects of PM in two different models also helps to minimize possible model-specific adverse effects.
The primary outcome measured is serum creatinine level at the end of PM treatment. […]
Two-month-old male Sprague-Dawley rats (250-300 g) are housed individually in metabolic cages. […] Animals are fed standard powdered stock ration, and their body weights are monitored daily. […]
For PM experiments, rats are randomized into 4 groups based on their baseline serum creatinine levels: (a) the Control group (no ARF is induced); (b) the PM group (no ARF is induced, but PM is given in drinking water); (c) the ARF group; and (d) the ARF+PM group. The experiment is terminated when the serum creatinine in the ARF group reaches its maximum level as determined in the model optimization studies described hereinabove. […]

[8] = system: diabetic rat model; conditions: similar or higher PM doses than 180 mg/day/kg body wt.; long-term; Degenhardt et al. 2002, Stitt et al. 2002; cited from earlier work

In the case of `Cc1ncc(CO)c(CN)c1O` [PM, 4-(aminomethyl)-5-(hydroxymethyl)-2-methyl-pyridin-3-ol], the “conversion of the BSA-Amadori glycation intermediate to BSA-CML” value [1] is reported as “inhibited the conversion of the BSA-Amadori glycation intermediate to BSA-CML”, the “formation of CML on collagen IV” value [2] is reported as “inhibited the formation of CML on collagen IV” and the “podocyte viability under cisplatin treatment” value [3] is reported as “protected cell viability in a concentration-dependent manner”. For the same compound, the “level of the isoprostane marker (8-F2-isoprostane) in the kidney” value [4] was “tendency toward lowering the level of the isoprostane marker”, the urinary oxalate excretion ([5]; EG+PM group vs EG group, PM 180 mg/day/kg body wt. in drinking water continuously from Day 14, FIG. 6A) was “dramatic and sustained decrease in urinary oxalate excretion” and the “urinary oxalate excretion after PM was discontinued” value ([5]; PM started Day 14, discontinued Day 28, FIG. 6B) was “increase in urinary oxalate excretion to the levels found in untreated hyperoxaluric animals”. The weight gain ([5]; all experimental groups, duration of the experiment, PM 180 mg/day/kg body wt.) was “No significant differences in weight gain”, the adverse effects ([5]; all experimental groups, PM 180 mg/day/kg body wt.) was “no adverse effects” and the “change in reactive PM amino groups in incubations with ethylene glycol” value [6] was “No change in amino groups was detected”. The “Creatinine levels at the end of experiment (primary outcome)” value [7] was “envisioned to be significantly lower”, the “degree of renal tubular pathology at the end of experiment (secondary outcome)” value [7] was “envisioned to be lower” and the therapeutic effect [8] was “had therapeutic effects”.

Source: patent US20070238761A1, “Use of pyridoxamine to treat and/or prevent disease processes” (Vanderbilt University, priority 2005, published 2007)
